The text below walks through data of publication PMC11939361, “diAcCA, a Pro-Drug for Carnosic Acid That Activates the Nrf2 Transcriptional Pathway, Shows Efficacy in the 5xFAD Transgenic Mouse Model of Alzheimer’s Disease” (Antioxidants, 2025).

SMILES strings stand for the structures. Entries after “also recorded” stand apart in the source; their conditions may differ. Read-outs that look alike come from different tables or passages of the source.

One data set deals with WT 6XC57BL6 mice. Description: Non-GLP toxicology analysis of esophagus and stomach (H&E, inflammation). The format is in vivo, mouse. The following applies: for overall safety / toxicology: in vivo. The procedure: Starting at 5 months of age, WT 6XC57BL6 mice were given either the highest dose of diAcCA used in this study (50 mg/kg) or olive oil vehicle three times a week for three months by oral gavage/PO. Following the treatment, the esophagus and stomach were isolated, and 5 μm-thick coronal and sagittal sections were cut from the esophagus. The stomach was opened along the greater curvature, cleaned with PBS, and pinned flat. Two 5 μm-thick sagittal sections were collected, one extending from the cardiac region to the duodenum, and the other from the forestomach to the fundic area. All sections were made using a rotary microtome (HM325-#387821, Fisher Scientific) and mounted on SuperfrostPlus slides (#1255015, Fisher brand). The sections were stained by hematoxylin and eosin stain (H&E) [Abcam H&E kit, ab245880], mounted with permount, dried overnight at room temperature, and then imaged. Acquired images were analyzed in a masked fashion for inflammation by a board-certified pathologist.
Extensive toxicity and safety data are already published on CA [47, 48]. […] Accordingly, in light of our PK findings, we selected a dose of 50 mg/kg to assess safety of the drug after oral administration to WT mice. We performed a non-GLP toxicology analysis of vehicle (olive oil) or drug administered PO three times a week for 3 months starting at 5 months of age. Following this period, sections from the stomach and esophagus were stained with H&E and examined blindly by a board-certified toxicologic pathologist.
Supplementary Figure S2. Pharmacokinetic and safety studies for diAcCA. […]
(D, E) Non-GLP toxicology analysis on WT mice after treatment with vehicle ( olive oil) or the highest concentration of diAcCA (50 mg/ kg) used in these experiments.
Representative esophagus and stomach lining sections (D) stained by hematoxylin & eosin (H&E) from two groups of mice. Scale: 500 μm. Bar graph (E) quantifying inflammation in esophagus (periesophagitis) and stomach (neutrophilic gastritis) by a standard tox inflammatory score ranging from 0 to 4 (0: inflammation within normal limits, 1: minimal […]
baseline inflammation in WT mice (n =3 animals in each group).
(1 picture or pasted object on this page, not shown here)

The subject of the next data set is 5xFAD mice. Description: Quantitative confocal immunohistochemistry (Q-IHC) of hippocampal sections. Format: in vivo, mouse. Here is the method: The 5xFAD mice bear five mutations linked to AD. Three of these are in the App695 gene [Swedish (APP K670N/M671L), Florida (I716V), London (V717I)], and two are in the PSEN1 gene [L286V, M146L]. Male 5xFAD breeder mice were obtained from Jackson Laboratories (#034848-JAX, Bar Harbor, ME, USA) and crossed with female 6XC57BL6 mice. Genotyping was performed by PCR. First-generation pups were used for all experiments with 5xFAD transgenic (Tg) and WT littermate control mice.
diAcCA or control vehicle was administered three times per week for 3 months to 5xFAD Tg or WT littermate control mice starting at approximately 5 months of age by oral gavage (designated here as “per os” or PO). Three different doses were used (10 mg/kg, 20 mg/kg, or 50 mg/kg). diAcCA was dissolved in olive oil vehicle, a non-polar organic solvent. For vehicle control, we administered olive oil alone. A total of 45 animals were used in this study, with 7–8 animals in each group.
For euthanasia, animals were deeply anesthetized with isoflurane and then transcardially perfused with ice-cold phosphate-buffered saline (PBS) followed by 4% paraformaldehyde (PFA) for fixation. Brains were isolated and post-fixed in 4% PFA overnight at 4 °C. The next day, brains were washed and transferred to 30% sucrose at 4 °C until sectioning. Every brain then received a masked code for the following steps, and the code was only broken after all quantifications were completed.
Sagittal sections (40 μm-thick) were prepared using a vibratome (Leica VT1200S) and incubated in blocking buffer (5% goat serum, 0.5% Triton X-100 in PBS) for 1 h at room temperature to prevent non-specific binding. Following blocking, floating sections were incubated in their respective primary antibody solutions on a shaker overnight at 4 °C. Antibodies against the following proteins were used in this study: NeuN (D4G4O, 1:500, rabbit mAb #24307, Cell Signaling Technology, Danvers, MA, USA), Synapsin I (D12G5, 1:500, rabbit mAb #5297, Cell Signaling Technology), phosphor (Ser202, Thr205)-tau (AT8, 1:500, mAb #MN1020, ThermoFisher Scientific, Waltham, MA, USA), glial fibrillary acidic protein (GFAP) (GA5, 1:500, MAB360, Millipore Sigma, Carlsbad, CA, USA), ionized calcium binding adaptor molecule 1 (Iba1) (EPR16589, 1:1000, #ab178847, Abcam, Waltham, MA, USA), human nuclear antigen (HuNu) (1:500, mouse mAb #191181, Abcam), and caspase-1 (1:50, rabbit pAb #AB1871, Sigma Aldrich, St. Louis, MO, USA). For Aβ staining, floating sections were pre-treated with 90% formic acid (28905, Thermo Scientific) for 1 min at room temperature. They were then rinsed and blocked, following which they were incubated in anti-β-amyloid 17–24 antibody (4G8, 1:1000, #800708, BioLegend, San Diego, CA, USA) on a shaker overnight at 4 °C.
The next day, immunostaining was performed on brain sections after 3 washes in PBS and incubation in the appropriate secondary antibody solution on a shaker for 2 h at room temperature. Secondary antibodies included Alexa 488 (A11008, 1:500, goat anti-rabbit, Life Technologies, Carlsbad, CA, USA) and Alexa 555 (A21424, 1:500, goat anti-mouse, Life Technologies). The sections were again washed with PBS 3 times, mounted on Superfrost plus slides (12-550-15, Fisher Scientific, Waltham, MA, USA) and dried at room temperature. The slides were then coated with Vectashield plus antifade mounting medium, stained with nuclear dye DAPI (H-2000, Vector Laboratories, San Francisco, CA, USA), and a coverslip (12541057, Fisher Scientific) was applied. For each brain, 3–6 images were acquired for each individual marker using a confocal fluorescence microscope (Nikon Eclipse Ti2) (Figure 1, Figure 2 and Figure 3, Supplementary Figure S1). Post image processing, quantification was performed using Fiji ImageJ (1.54f). For the Iba1-stained slides, a mask was made of cells co-labeled for HuNu and Iba1, and then caspase 1 staining was measured. […]

Data set [1] is described as follows: Brain levels of CA from prior plasma/brain PK data. The conditions noted are these: for Cmax: mouse, read-out: predicted Cmax in the brain. Format: in vivo.
Procedure: We also determined the stability and bioavailability of diAcCA compared to CA. For this purpose, individual mice were administered CA or diAcCA IV or via oral gavage/PO. For CA, the doses were 3 mg/kg for the IV route and 10 mg/kg for oral gavage/PO, and for diAcCA 10 mg/kg by oral gavage/PO. Plasma concentrations were evaluated at ten different time points over the next 72 h (raw data shown in Tables S1 and S2, Supplementary Materials).
The extensive existing PK data obtained on plasma and brain samples for CA, correlated with prior in vivo efficacy data for CA [26, 33, 49], allowed us to calculate the therapeutic dose range that we wanted to test here for diAcCA.
Where [2] appears, read: 5xFAD hippocampus, 10, 20 or 50 mg/kg PO three times a week for 3 months vs vehicle.

For `CC(=O)Oc1c(C(C)C)cc2c(c1OC(C)=O)[C@@]1(C(=O)O)CCCC(C)(C)[C@@H]1CC2` [diAcCA], the “baseline inflammation in the esophagus (periesophagitis), H&E” value in the data set with WT 6XC57BL6 mice (WT mice, 50 mg/kg PO three times a week for 3 months vs olive oil vehicle, n = 3, 50 mg/kg) is listed as “appeared to improve; also recorded: improved baseline inflammation in the esophagus”. Further, in the data set with WT 6XC57BL6 mice (mouse), the “overall safety / toxicology” value was “as safe or safer than CA” and the “toxicity to the digestive system after oral administration” value is given as “no toxicity was noted”. Also, the “overall safety / toxicology” value in the data set on WT 6XC57BL6 mice (mouse, listed as diAcCa) is “no toxicological issues”. In addition, in the data set on 5xFAD mice (setting [2]), the “GFAP MFI, astrocytes” value is listed as “significantly improved; also recorded: reduced GFAP MFI”; the “Iba1 integrated density (ID), microglial density” value is “significantly improved; also recorded: improved IBA ID”; the “NeuN mean fluorescence intensity (MFI), neuronal density” value is on record as “significantly improved; also recorded: restored NeuN MFI (representing neuronal number) to near normal levels”; the “Synapsin I MFI, presynaptic density” value is given as “significantly improved; also recorded: restored Synapsin I MFI (located in the presynaptic terminal of the synapse) to near normal levels”. Also, the “percent area of Aβ accumulation (4G8)” value in the data set with 5xFAD mice (setting [2]) was “significantly reduced the area of Aβ accumulation; also recorded: significantly reduced the area of Aβ aggregates”. Further, the “percentage area of pTau aggregates (AT8)” value in the data set on 5xFAD mice (5xFAD hippocampus, each treatment dose (10, 20, 50 mg/kg PO, 3 months) vs vehicle) is reported as “remarkable decrease in the area of pTau aggregates; also recorded: dramatically reduced the area of pTau aggregates”. For the same compound, the “time to reach neurotherapeutic levels in the brain” value in data set [1] (after conversion of diAcCA to CA) is “less than 1 h”. The peak concentration (Cmax) – broadly, the highest concentration seen after dosing – in data set [1] (diAcCA 10 mg/kg PO) was roughly 600 nM. For the same compound, the Cmax in data set [1] (diAcCA 20 mg/kg PO) is roughly 1200 nM. In data set [1] (diAcCA 50 mg/kg PO), the Cmax was roughly 3000 nM.
